Earlier results on six molecules are cited in US8506359B2, “Aqueous dispersion for chemical mechanical polishing and chemical mechanical polishing method” (JSR Corporation, priority 2008, dated 2013).

As usually defined, the pKa is the pH at which an ionisable group is half protonated.

For this series the following is noted: 25° C.; second carboxyl group for two carboxyl groups, third carboxyl group for three or more.

Molecules are shown by their SMILES.

Consider `O=C(O)C1CCCCCC1C(=O)O` (stereo not drawn) [1,2-Cycloheptanedicarboxylic acid (cis), 1,2-Cycloheptanedicarboxylic acid], for which the pKa is on record as 7.60. Take `O=C(O)C1CCCCCC1C(=O)O` (stereo not drawn) [1,2-Cycloheptanedicarboxylic acid (trans)]: the pKa is 6.18. On to `O=C(O)C1CCCCCCC1C(=O)O` (stereo not drawn) [1,2-Cyclooctanedicarboxylic acid (cis), 1,2-Cyclooctanedicarboxylic acid], for which the pKa is on record as 7.34.

Take `O=C(O)C1CCCCCCC1C(=O)O` (stereo not drawn) [1,2-Cyclooctanedicarboxylic acid (trans), 1,2-Cyclooctanedicarboxylic acid]: the pKa is 6.24. On to `O=C(O)C1CCCC1C(=O)O` (stereo not drawn) [1,2-Cyclopentanedicarboxylic acid (cis), 1,2-Cyclopentanedicarboxylic acid], for which the pKa is recorded as 6.57. As to `O=C(O)C1CCCC1C(=O)O` (stereo not drawn) [1,2-Cyclopentanedicarboxylic acid (trans)], the pKa is on record as 5.99.
